Experimental data taken from patent publication US20220089540A1 (Board of Trustees of Michigan State University, priority 2019, published 2022).
Values joined by “and” are separate entries in the source; they are usually repeats but may differ in a detail not shown here. Identical values can stand only once.

Tests used:
[1] = tested on: PD-L1; test: PD-L1 induction in macrophages or RAW264.7 cells with cancer cell conditioned media (flow cytometry); assay type: cell-based, mouse; settings: for PD-L1 Levels: Table 4, Control 43.3
Description: RAW 264.7 mouse macrophage-like (ATCC) and E18-14C-27 (Wu et al., Cancer Res. 62, 6376-6380 (2002)) cells were cultured in DMEM supplemented with 10% fetal bovine serum (FBS). RAW 264.7 cells were cultured at 50000/well in a 6 well plate for 24 hours to determine PD-L1 levels. E18-14C-27 cells were cultured for 72 hours in the presence of LG268 for protein levels. Conditioned media was collected from E18-14C-27 at 60-70% confluence for 24 hours; media was then collected and centrifuged at 900 rpm for 5 minutes to eliminate any cell debris.
For PD-L1 staining, RAW 264.7 cells were plated at 25000 cells/ml in 6 well plates for 24 hours before adding conditioned media from E18-14C-27 and LG268. RAW 264.7 cells were cultured for additional 24 hours with E18-14C-27 conditioned media and LG268. […] THP-1 cells were stained and analyzed for the levels of PD-L1 following the same protocol.
Inhibitory receptors on lymphocytes such as PD-1 (programmed cell death protein 1) are important immune checkpoints that protect against autoimmunity as the interaction between PD-L1 (ligand) and the PD-1 receptor expressed on immune cells suppresses T cell activity. Immuno-oncology is revolutionizing cancer treatment, and enormous research efforts are ongoing to identify drugs that upregulate PD-L1 so that they can be combined with checkpoint inhibitors to boost efficacy. Macrophages or RAW264.7 cells are treated with conditioned media from cancer cells and rexinoids, and PD-L1 expression determined by flow cytometry. Higher numbers indicate better upregulation of PD-LI.
Using methods described herein, macrophages or RAW264.7 cells were treated with selected rexinoids and with conditioned media from cancer cells. Structures of the rexinoids are shown below.
PD-L1 expression was determined by flow cytometry.

[2] = tested on: inducible nitric oxide synthase (iNOS); test: iNOS suppression / NO assay in LPS-stimulated macrophages or RAW264.7 cells (Griess reaction); assay type: cell-based, mouse
How it was run: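 RAW264.7 cells or macrophages incubated with rexinoids (300 nM, or 100 nM/300 nM, or a concentration series) and stimulated with 1–2 ng/ml LPS for 24 h. Nitric oxide released into medium measured by Griess reaction; values given as percent of LPS-stimulated control, % inhibition, or IC50.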

[3] = tested on: SREBP; test: SREBP induction in human liver (HepG2) cells, RT-PCR; assay type: cell-based; parameters: key to SREBP: fold induction vs DMSO control
Description: The SREBP transcription factor is involved in triglyceride synthesis, and its activation correlates with increased triglycerides in vivo. […] Lower numbers indicate better safety. […] Lower numbers indicate better safety. Also, for Table 6, SREBP activation was measured as fold induction compared to DMSO, where a lower value indicates the compound is an improvement over a control.

[4] = tested on: Lung Cancer Model; test: Lung cancer model rank order; assay type: in vivo
[5] = Triglycerides in rodent models; assay type: in vivo
[6] = tested on: RAR receptor; settings: cited from earlier work
[7] = tested on: mammary gland tumors of MMTV-Neu mice; test: MMTV-Neu mouse model of HER2 positive breast cancer, rexinoid in diet; settings: 100 mg/kg diet, LG268 5 days
Description: Tumors or mammary glands were homogenized in EBC buffer (1M Tris pH 8, 5M NaCl) with the same protease inhibitors and 10% NP-40 and incubated on ice for 30 min. Protein concentrations were determined by the BCA assay (Sigma-Aldrich). Proteins were resolved by SDS-PAGE, transferred to a nitrocellulose membrane and analyzed with the following antibodies: vinculin, p-STAT1, p-STAT3, p-STAT5 and mouse and rabbit secondary antibodies (Cell Signaling); PD-1, CD206 (Abcam); PD-L1 (R&D). ImageJ was used to quantify the immunoblots, and results were plotted and statistically analyzed using Prism 6. All images shown are representative of 3 independent experiments.
One third of the tumor, mammary gland and spleen removed from MMTV-neu or MMTV-PyMT mice were minced separately and incubated in digestion media consisting of collagenase (300 U/ml, Sigma), dispase (1 U/ml, Worthington), and DNAse (2 U/ml, Calbiochem) for 30 minutes at 37° C. with stirring. Cells were then passed through a 40 μm cell strainer (BD Falcon), and red blood cells eliminated with lysis solution. […] Propidium iodide staining was used to exclude dead cells.
One third of the tumor, spleen and one mammary was removed from MMTV-neu and PyMT mice and fixed in 10% phosphate-buffered formalin for 48 hours, embedded in paraffin blocks, and sectioned (5-6 μm). Hydrogen peroxide was used to quench endogenous peroxidase activity. Sections were immunostained with antibodies raised against CD206 (1:200, Abcam), Gr1 (1:40, BM8, R&D), CD8 (1:40, Biolegend), FOXP3 (1:50, EBiosciences), PD-1 (1:100, Abcam), PD-L1 (1:50, Abcam), cleaved caspase 3 (Cell Signaling) and visualized with biotinylated anti-rabbit or anti-rat secondary antibodies (Cell Signaling or Vector Labs). Signal was detected using a DAB substrate (Cell Signaling) following the manufacturer's recommendations. Sections were counterstained with hematoxylin (Vector Labs).
Both rexinoid treatments were 100 mg/kg of diet, which is equivalent to 25 mg/kg of body weight (FIG. 1B).

[8] = bexarotene 10 days, western blot

SMILES: C=C(c1ccc(C(=O)O)cc1)c1cc2c(cc1C)C(C)(C)CCC2(C)C [Bexarotene, bexarotene]
- PD-L1 ([1]; 100 nM, Table 2, Control 39.8, higher numbers indicate better upregulation): 58.5
- PD-L1 Levels ([1]; 100 nM): 51.2
- PD-L1 Levels ([1]; 1000 nM): 64
- PD-L1 levels in RAW 264.7 cells with E18-14C-27C conditioned media ([1]; 24 hours): no changes
- activity at 0.1 µM ([2]; Mus musculus, RAW264.7, 24 h, at 100 nM, percent of the LPS-stimulated control, lower is better, Table 6): 30 to 35%
- activity at 0.125 µM ([2]; Mus musculus, RAW264.7, 125 nM, Control 100, lower numbers indicate higher efficacy, read-out: NO Assay): 78%
- activity at 0.5 µM ([2]; Mus musculus, RAW264.7, 500 nM, Control 100, lower numbers indicate higher efficacy, read-out: NO Assay): 32.4%
- iNOS ([2]; at 100 nM, comparators of Table 3): 22-40% at 100 nM
- SREBP ([3]; 300 nM, Control 1.00, lower numbers indicate better safety, Table 2): 2.13
- SREBP activation ([3]; fold induction compared to DMSO, several values per cell, Table 6): 2.7 fold induction and 2.9 fold induction and 1.95 fold induction
- Lung Cancer Model Rank Order [4]: 5
- Triglyccerides (Rodent Models) [5]: Elevated
- binding to the RAR receptor [6]: limited RAR binding
- PD-L1 expression in tumors vs control ([7]; CW-V-125 10 days, western blot and/or immunohistochemistry): did not significantly induce
- myeloid derived suppressor cells (CD45+, CD11b+, Gr1+) in tumors ([7]; bexarotene 10 days, control 1.9%): did not alter
- mammary tumor size (tumor weight as percentage of total body weight) ([7]; bexarotene 10 days, control diet 3.2%): did not reduce
- cleaved caspase 3 in tumors ([7]; bexarotene 10 days, immunohistochemistry): did not increase
- reduction of CD206 expression in tumor lysates [7, 8]: did not induce a change
- reduction of p-STAT1 expression in whole tumor lysates [7, 8]: no changes
